Experimental data from patent US9376418B2, “Substituted pyridine spleen tyrosine kinase (SYK) inhibitors” (Merck Sharp & Dohme Corp., priority 2012, dated 2016).

target: T1, recombinant human GST-SYK (Homo sapiens, UniProt P43405); experiment: Homogeneous Time-Resolved Fluorescence (HTRF) assay for the recombinant human Syk enzyme; type: biochemical; conditions: HTRF assay, recombinant human GST-SYK; IC50 given as class symbols; read-out: rhSYK Activity
T1 construct: purchased Carna Biosciences 08-176
Method in brief: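 HTRF read-out: Europium-anti-phosphotyrosine antibody (2 nM) plus SA-APC (70 nM) in EDTA-containing buffer quenched the reaction, and signal was read after 30 minutes. Kinase step used […], 250 nM biotinylated peptide, 25 μM ATP, 5 mM Mg, 45′ at room temperature.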

IC50, 100 to 1000 nM:
Cc1cc(Nc2nccc(C(F)(F)F)n2)cc(-c2ccnc(NCc3cn(C)cn3)c2)c1 [Example 15.40, N-[3-methyl-5-(2-{[(1-methyl-1H-imidazol-4-yl)methyl]amino}pyridin-4-yl)phenyl]-4-(trifluoromethyl)pyrimidin-2-amine]
Cc1cc(Nc2nccc(C(F)(F)F)n2)cc(-c2ccnc(N3CCN(C)CC3)c2)c1 [Example 15.61, N-{3-methyl-5-[2-(4-methylpiperazin-1-yl)pyridin-4-yl]phenyl}-4-(trifluoromethyl)pyrimidin-2-amine]
CCOC(=O)/C=C/c1ccc(-c2cc(C)cc(Nc3nccc(C(F)(F)F)n3)c2)cn1 [Example 22.1, Ethyl-3-[5-(3-methyl-5-{[4-(trifluoromethyl)pyrimidin-2-yl]amino}phenyl)pyridin-2-yl]prop-2-enoate]
Cc1cc(Nc2nccc(C)n2)cc(-c2cncc(CCC(=O)O)c2)c1 [Example 2.90, 3-(5-{3-methyl-5-[(4-methylpyrimidin-2-yl)amino]phenyl}pyridin-3-yl)propanoic acid]
Cc1cc(Nc2nccc(C(F)(F)F)n2)cc(-c2ccc(C(=O)NC3(CO)CCCC3)nc2)c1 [Example 16.21, N-[1-(hydroxymethyl)cyclopentyl]-5-(3-methyl-5-{[4-(trifluoromethyl)pyrimidin-2-yl]amino}phenyl)pyridin-2-carboxamide]
COCC1CCCN1c1cc(-c2cc(C)cc(Nc3nccc(C(F)(F)F)n3)c2)ccn1 (stereo not drawn) [Example 15.69, N-(3-{2-[2-(methoxymethyl)pyrrolidin-1-yl]pyridin-4-yl}-5-methylphenyl)-4-(trifluoromethyl)pyrimidin-2-amine]
Cc1cc(Nc2nccc(C(F)(F)F)n2)cc(-c2ccc(C(=O)NC(C3CC3)C3CC3)nc2)c1 [Example 16.46, N-(dicyclopropylmethyl)-5-(3-methyl-5-{[4-(trifluoromethyl)pyrimidin-2-yl]amino}phenyl)pyridine-2-carboxamide]
COCC1CCCN1c1ccc(-c2cc(C)cc(Nc3nccc(C(F)(F)F)n3)c2)cn1 (stereo not drawn) [Example 7.54, N-(3-{6-[2-(methoxymethyl)pyrrolidin-1-yl]pyridin-3-yl}-5-methylphenyl)-4-(trifluoromethyl)pyrimidin-2-amine]
CCCCOC(=O)[C@H]1CC[C@H](C(C)(O)c2ccc(-c3cc(C)cc(Nc4nccc(C5CC5)n4)c3)cn2)CC1 (relative stereo) [Example 9.48, butyl trans-4-[1-(5-{3-[(4-cyclopropylpyrimidin-2-yl)amino]-5-methylphenyl}pyridin-2-yl)-1-hydroxyethyl]cyclohexanecarboxylate]

IC50, < 100 nM:
Cc1cc(Nc2nccc(C(F)(F)F)n2)cc(-c2ccc(NC3CNC(=O)C3)nc2)c1 (stereo not drawn) [Example 7.128, 4-{[5-(3-methyl-5-{[4-(trifluoromethyl)pyrimidin-2-yl]amino}phenyl)pyridin-2-yl]amino}pyrrolidin-2-one]
Cc1cc(Nc2nccc(C(F)(F)F)n2)cc(-c2ccc(N[C@@H](Cc3c[nH]cn3)C(=O)O)nc2)c1 [Example 7.112, N-[5-(3-methyl-5-{[4-(trifluoromethyl)pyrimidin-2-yl]amino}phenyl)pyridin-2-yl]-L-histidine]
Cc1cc(Nc2nccc(C3CC3)n2)cc(-c2cncc(CCC(=O)O)c2)c1 [Example 2.102, 3-(5-{3-[(4-cyclopropylpyrimidin-2-yl)amino]-5-methylphenyl}pyridin-3-yl)propanoic acid]
Cc1cc(Nc2nccc(C(F)(F)F)n2)cc(-c2cncc(C3(O)CCN(C(N)=O)CC3)c2)c1 [Example 10.1, 4-Hydroxy-4-[5-(3-methyl-5-{[4-(trifluoromethyl)pyrimidin-2-yl]amino}phenyl)pyridin-3-yl]piperidine-1-carboxamide]
Cc1cc(Nc2nccc(C(F)(F)F)n2)cc(-c2ccc(C3(O)CCC(C(=O)O)C(C)(C)C3)nc2)c1 (single isomer, unassigned) [Example 9.16, (1R,4S or 1S,4R)-4-hydroxy-2,2-dimethyl-4-[5-(3-methyl-5-{[4-(trifluoromethyl)pyrimidin-2-yl]amino}phenyl)pyridin-2-yl]cyclohexanecarboxylic acid]
Cc1cc(Nc2nccc(C(F)(F)F)n2)cc(-c2ccnc(C(C)(C)O)c2)c1 [Example 9.61, 2-[4-(3-methyl-5-{[4-(trifluoromethyl)pyrimidin-2-yl]amino}phenyl)pyridin-2-yl]propan-2-ol]
Cc1cc(Nc2nccc(C(F)(F)F)n2)cc(-c2ccc(C3(O)CCC(C(=O)O)C3(C)C)nc2)c1 (stereo not drawn) [Example 9.22, 3-hydroxy-2,2-dimethyl-3-[5-(3-methyl-5-{[4-(trifluoromethyl)pyrimidin-2-yl]amino}phenyl)pyridin-2-yl]cyclopentanecarboxylic acid]
Cc1cc(Nc2nccc(C)n2)cc(-c2ccc(CCC(=O)O)nc2)c1 [Example 2.89, 3-(5-{3-methyl-5-[(4-methylpyrimidin-2-yl)amino]phenyl}pyridin-2-yl)propanoic acid]
Cc1cc(Nc2nccc(C(F)(F)F)n2)cc(-c2cncc(C3(O)CCCC(C(=O)O)C3)c2)c1 (stereo not drawn) [Example 9.66, 3-hydroxy-3-[5-(3-methyl-5-{[4-(trifluoromethyl)pyrimidin-2-yl]amino}phenyl)pyridin-3-yl]cyclohexanecarboxylic acid]
Cc1cc(Nc2nccc(C(F)(F)F)n2)cc(-c2ccc(C(NC(N)=O)(C3CC3)C3CC3)nc2)c1 [Example 19.1, 1-{Dicyclopropyl[5-(3-methyl-5-{[4-(trifluoromethyl)pyrimidin-2-yl]amino}phenyl)pyridin-2-yl]methyl}urea]
Cc1cc(Nc2nccc(C(F)(F)F)n2)cc(-c2ccnc(C3(O)CCC(C(=O)O)C(C)(C)C3)c2)c1 (single isomer, unassigned) [Example 9.59, (1S,4R or 1R,4S)-4-hydroxy-2,2-dimethyl-4-[4-(3-methyl-5-{[4-(trifluoromethyl)pyrimidin-2-yl]amino}phenyl)pyridin-2-yl]cyclohexanecarboxylic acid]
Cc1cc(Nc2nccc(C(F)(F)F)n2)cc(-c2ccc(N3CCN(C)C(=O)C3C)nc2)c1 (stereo not drawn) [Example 7.55, 1,3-dimethyl-4-[5-(3-methyl-5-{[4-(trifluoromethyl)pyrimidin-2-yl]amino}phenyl)pyridin-2-yl]piperazin-2-one]
Cc1cc(Nc2nccc(C(F)(F)F)n2)cc(-c2ccc(N[C@H](CO)C(=O)O)nc2)c1 [Example 7.108, N-[5-(3-methyl-5-{[4-(trifluoromethyl)pyrimidin-2-yl]amino}phenyl)pyridin-2-yl]-D-serine]
Cc1cc(Nc2ncc(Br)c(C(F)(F)F)n2)cc(-c2ccc(NC(C)(C)C(=O)O)nc2)c1 [Example 7.152]
CC1(C)CC(O)(c2ccc(-c3cccc(Nc4nccc(C(F)(F)F)n4)c3)cn2)CCC1C(=O)O (stereo not drawn) [Example 9.43, 4-hydroxy-2,2-dimethyl-4-[5-(3-{[4-(trifluoromethyl)pyrimidin-2-yl]amino}phenyl)pyridin-2-yl]cyclohexanecarboxylic acid]
Cc1cc(Nc2nccc(C(F)(F)F)n2)cc(-c2cncc(C3(O)CCC(C(=O)O)C3)c2)c1 (stereo not drawn) [Example 9.5, 3-Hydroxy-3-[5-(3-methyl-5-{[4-(trifluoromethyl)pyrimidin-2-yl]amino}phenyl)pyridin-3-yl]cyclopentanecarboxylic acid]
Cc1cc(Nc2nccc(C(F)(F)F)n2)cc(-c2ccc(N3CCC[C@H]3C(=O)O)nc2)c1 [Example 7.84, 1-[5-(3-methyl-5-{[4-(trifluoromethyl)pyrimidin-2-yl]amino}phenyl)pyridin-2-yl]-L-proline]
Cc1cc(Nc2nccc(C(F)(F)F)n2)cc(-c2cncc(C3(O)CCC(C(=O)O)C3)c2)c1 (stereo not drawn) [Example 9.67, 3-hydroxy-3-[5-(3-methyl-5-{[4-(trifluoromethyl)pyrimidin-2-yl]amino}phenyl)pyridin-3-yl]cyclopentanecarboxylic acid]
Cc1cc(Nc2nccc(C(F)(F)F)n2)cc(-c2ccc(NCC3CCC(=O)N3)nc2)c1 (stereo not drawn) [Example 7.16, 5-({[5-(3-methyl-5-{[4-(trifluoromethyl)pyrimidin-2-yl]amino}phenyl)pyridin-2-yl]amino}methyl)pyrrolidin-2-one]
Cc1cc(Nc2nccc(C(F)(F)F)n2)cc(-c2ccc(CN3CCNC3=O)nc2)c1 [Example 17.1, 1-{[5-(3-Methyl-5-{[4-(trifluoromethyl)pyrimidin-2-yl]amino}phenyl)pyridin-2-yl]methyl}imidazolidin-2-one]
Cc1cc(Nc2nccc(C(F)(F)F)n2)cc(-c2ccc(CC(C)(C)C(=O)O)nc2)c1 [Example 22.3, 2,2-Dimethyl-3-[5-(3-methyl-5-{[4-(trifluoromethyl)pyrimidin-2-yl]amino}phenyl)pyridin-2-yl]propanic acid]
FC(F)(F)c1ccnc(Nc2cc(-c3cccc(N4CCOCC4)n3)cc(N3CCOCC3)c2)n1 [Example 1.3, N-[3-morpholin-4-yl-5-(6-morpholin-4-ylpyridin-2-yl)phenyl]-4-(trifluoromethyl)pyrimidin-2-amine]
Cc1cc(Nc2nccc(C(F)(F)F)n2)cc(-c2cncc(CO)c2)c1 [Example 2.66, [5-(3-methyl-5-{[4-(trifluoromethyl)pyrimidin-2-yl]amino}phenyl)pyridin-3-yl]methanol]
Cc1cc(Nc2nccc(C(F)(F)F)n2)cc(-c2ccc(NC3(C(=O)O)CCC3)nc2)c1 [Example 7.78, 1-{[5-(3-methyl-5-{[4-(trifluoromethyl)pyrimidin-2-yl]amino}phenyl)pyridin-2-yl]amino}cyclobutanecarboxylic acid]
